From patent US20130302442A1, “METHODS OF USING (4S,4AS,5AR,12AS)-4-DIMETHYLAMINO-3,10,12,12A-TETRAHYDROXY-7-[(METHOXY(METHYL)AMINO)-METHYL]-1,11-DIOXO-1,4,4A,5,5A,6,11,12A-OCTAHYDRO-NAPHTHACENE-2-CARBOXYLIC ACID AMIDE” (priority 2012, published 2013)
Values after ≈ are worked out from the molar mass of the structure shown. Where two headings read alike, the source gives them in different places.

Legend:
Bifidobacterium bifidum = assay: In vitro MIC testing against anaerobic bacteria; format: cell-based; conditions: ATCC15696; Bifidobacterium bifidum 3965, ATCC 15696
Bifidobacterium brevi = assay: In vitro MIC testing against anaerobic bacteria; format: cell-based; conditions: ATCC15698; Bifidobacterium brevi 3967, ATCC 15698
Bifidobacterium infantis = assay: In vitro MIC testing against anaerobic bacteria; format: cell-based; conditions: ATCC15702; Bifidobacterium infantis 3966, ATCC 15702
Bifidobacterium longum = assay: In vitro MIC testing against anaerobic bacteria; format: cell-based; conditions: ATCC15707; Bifidobacterium longum 3968, ATCC 15707
Clostridium perfringens = assay: microbe, parasite or virus in culture; format: cell-based
Clostridium difficile = assay: In vitro MIC testing against anaerobic bacteria; format: cell-based
[1] = tested on: Lactobacillus acidophilus; assay: In vitro MIC testing against anaerobic bacteria; format: cell-based; conditions: Lactobacillus acidophilus 0681
Lactobacillus casei = assay: In vitro MIC testing against anaerobic bacteria; format: cell-based; conditions: Lacticaseibacillus casei, ATCC393; Lactobacillus casei 1722, ATCC 393
Lactobacillus plantarum = assay: In vitro MIC testing against anaerobic bacteria; format: cell-based; conditions: Lactiplantibacillus plantarum, ATCC39268; Lactobacillus plantarum 2791, ATCC 39268
[2] = tested on: Peptostreptococcus anaerobius; assay: In vitro MIC testing against anaerobic bacteria; format: cell-based
[3] = tested on: Peptostreptococcus micros; assay: In vitro MIC testing against anaerobic bacteria; format: cell-based; conditions: Parvimonas micra, read-out: MIC
Propionibacterium acnes = assay: In vitro MIC testing against anaerobic bacteria; format: cell-based; conditions: Cutibacterium acnes, read-out: MIC
[4] = tested on: Streptococcus intermedius; assay: In vitro MIC testing against anaerobic bacteria; format: cell-based; conditions: ATCC27335; Streptococcus intermedius 1203, ATCC 27335
Bacteroides fragilis = assay: In vitro MIC testing against anaerobic bacteria; format: cell-based
Bacteroides ovatus = assay: In vitro MIC testing against anaerobic bacteria; format: cell-based
[5] = tested on: Bacteroides thetaiotaomicron; assay: In vitro MIC testing against anaerobic bacteria; format: cell-based
Bacteroides vulgatus = assay: In vitro MIC testing against anaerobic bacteria; format: cell-based
[6] = tested on: Fusobacterium necrophorum; assay: In vitro MIC testing against anaerobic bacteria; format: cell-based; conditions: ATCC25286; Fusobacterium necrophorum 3963, ATCC 25286; read-out: MIC
Fusobacterium nucleatum = assay: In vitro MIC testing against anaerobic bacteria; format: cell-based; conditions: ATCC25586; Fusobacterium nucleatum 3962, ATCC 25586; read-out: MIC
[7] = tested on: Prevotella melaninogenica; assay: In vitro MIC testing against anaerobic bacteria; format: cell-based
Prevotella spp. = assay: In vitro MIC testing against anaerobic bacteria; format: cell-based
Veillonella parvula = assay: In vitro MIC testing against anaerobic bacteria; format: cell-based; conditions: ATCC17745; Veillonella parvula 1272, ATCC 17745
P. granulosum = assay: In vitro MIC testing, antibacterial spectrum of activity; format: cell-based; conditions: P. granulosum [clinical isolates] (3 isolates)
S. pneumoniae = assay: as above; format: cell-based, Streptococcus pneumoniae
S. pyogenes = assay: as above; format: cell-based
S. agalactiae = assay: as above; format: cell-based
S. haemolyticus = assay: as above; format: cell-based; conditions: S. haemolyticus (33 isolates)
[8] = tested on: Streptococcus spp. [Group C]; assay: as above; format: cell-based; conditions: Streptococcus spp. [Group C] (30 isolates)
E. faecium = assay: as above; format: cell-based; conditions: for MIC / MIC50 / MIC90: Enterococcus faecium; for MIC50: read-out: MIC50; for MIC90: read-out: MIC90
E. coli = assay: as above; format: cell-based; conditions: E. coli [tetS] (7 isolates)
K. pneumoniae = assay: as above; format: cell-based
P. mirabilis = assay: as above; format: cell-based; conditions: Proteus mirabilis; P. mirabilis (30 isolates)
P. aeruginosa = assay: as above; format: cell-based; conditions: Pseudomonas aeruginosa; P. aeruginosa (11 isolates)
[9] = Klebsiella pneumoniae, K. pneumoniae (31 isolates)

C[C@H]1c2cccc(O)c2C(=O)C2=C(O)[C@]3(O)C(=O)C(C(N)=O)=C(O)[C@@H](N(C)C)[C@@H]3[C@@H](O)[C@@H]21 [Doxycycline, doxycycline]
MIC (Bifidobacterium bifidum): 0.5 µg/mL (≈ 1.13 µM)
MIC (Bifidobacterium brevi): 0.5 µg/mL (≈ 1.13 µM)
MIC (Bifidobacterium infantis): 0.5 µg/mL (≈ 1.13 µM)
MIC (Bifidobacterium longum): 1 µg/mL (≈ 2.25 µM)
MIC (Clostridium perfringens): 16 µg/mL (≈ 36 µM)
MIC (Clostridium difficile; Clostridioides difficile): 0.06 µg/mL (≈ 0.135 µM)
MIC (Clostridium difficile; Clostridium difficile 3584): 0.06 µg/mL (≈ 0.135 µM)
MIC [1]: 2 µg/mL (≈ 4.5 µM)
MIC (Lactobacillus casei): 2 µg/mL (≈ 4.5 µM)
MIC (Lactobacillus plantarum): 2 µg/mL (≈ 4.5 µM)
MIC ([2]; Peptostreptococcus anaerobius 3526): 2 µg/mL (≈ 4.5 µM)
MIC ([2]; Peptostreptococcus anaerobius 3531): 4 µg/mL (≈ 9 µM)
MIC ([3]; Peptostreptococcus micros 3432): 0.12 µg/mL (≈ 0.27 µM)
MIC ([3]; Peptostreptococcus micros 3545): 0.5 µg/mL (≈ 1.13 µM)
MIC (Propionibacterium acnes; ATCC11829, Propionibacterium acnes 1286, ATCC 11829): 0.5 µg/mL (≈ 1.13 µM)
MIC (Propionibacterium acnes; Propionibacterium acnes 1713): 0.12 µg/mL (≈ 0.27 µM)
MIC [4]: 0.5 µg/mL (≈ 1.13 µM)
MIC (Bacteroides fragilis; Bacteroides fragilis 3374, read-out: MIC): 0.12 µg/mL (≈ 0.27 µM)
MIC (Bacteroides fragilis; Bacteroides fragilis 3479): 16 µg/mL (≈ 36 µM)
MIC (Bacteroides ovatus; Bacteroides ovatus 3503, read-out: MIC): 8 µg/mL (≈ 18 µM)
MIC (Bacteroides ovatus; Bacteroides ovatus 3508, read-out: MIC): 0.12 µg/mL (≈ 0.27 µM)
MIC ([5]; Bacteroides thetaiotaomicron 3399): 0.25 µg/mL (≈ 0.563 µM)
MIC ([5]; Bacteroides thetaiotaomicron 3496): 16 µg/mL (≈ 36 µM)
MIC (Bacteroides vulgatus; Bacteroides vulgatus 3494): 8 µg/mL (≈ 18 µM)
MIC (Bacteroides vulgatus; Phocaeicola vulgatus, Bacteroides vulgatus 3389, read-out: MIC): 8 µg/mL (≈ 18 µM)
MIC [6]: 0.5 µg/mL (≈ 1.13 µM)
MIC (Fusobacterium nucleatum): 0.5 µg/mL (≈ 1.13 µM)
MIC [7]: 16 µg/mL (≈ 36 µM)
MIC ([7]; Prevotella melaninogenica 3443, read-out: MIC): 1 µg/mL (≈ 2.25 µM)
MIC (Prevotella spp.; Prevotella spp. 3564): 1 µg/mL (≈ 2.25 µM)
MIC (Prevotella spp.; Prevotella spp. 3568): 1 µg/mL (≈ 2.25 µM)
MIC (Veillonella parvula): 1 µg/mL (≈ 2.25 µM)
MIC Range (P. granulosum): 0.5 to 1 µg/mL
MIC Range (S. pneumoniae; S. pneumoniae [tetR] (5 isolates)): 4-4 μg/mL
MIC Range (S. pneumoniae; S. pneumoniae [tetS] (5 isolates)): ≦0.06-0.125 μg/mL
MIC50 (S. pneumoniae; Streptococcus pneumoniae, S. pneumoniae [PSSP] (32 isolates), read-out: MIC50): 0.06 µg/mL (≈ 0.135 µM)
MIC90 (S. pneumoniae; Streptococcus pneumoniae, S. pneumoniae [PSSP] (32 isolates), read-out: MIC90): 0.12 µg/mL (≈ 0.27 µM)
MIC (S. pneumoniae; Streptococcus pneumoniae, S. pneumoniae strain PBS # 511, tetM): 4 µg/mL (≈ 9 µM)
MIC Range (S. pyogenes; S. pyogenes (32 isolates)): 0.06 to 8 µg/mL
MIC Range (S. pyogenes; S. pyogenes [tetR] (5 isolates)): 4 to 8 µg/mL
MIC Range (S. pyogenes; S. pyogenes [tetS] (5 isolates)): ≦0.06-0.125 μg/mL
MIC (S. pyogenes; Streptococcus pyogenes, S. pyogenes strain PBS # 330, tetO): 8 µg/mL (≈ 18 µM)
MIC (S. pyogenes; Streptococcus pyogenes, S. pyogenes strain PBS # 792, tetM): 4 µg/mL (≈ 9 µM)
MIC50 (S. pyogenes; Streptococcus pyogenes, S. pyogenes (32 isolates), read-out: MIC50): 0.12 µg/mL (≈ 0.27 µM)
MIC90 (S. pyogenes; Streptococcus pyogenes, S. pyogenes (32 isolates), read-out: MIC90): 4 µg/mL (≈ 9 µM)
MIC Range (S. agalactiae; S. agalactiae (31 isolates)): 0.06 to 16 µg/mL
MIC Range (S. agalactiae; S. agalactiae [tetR] (7 isolates)): 8 to 16 µg/mL
MIC Range (S. agalactiae; S. agalactiae [tetS] (3 isolates)): 0.25-0.25 μg/mL
MIC (S. agalactiae; Streptococcus agalactiae, S. agalactiae strain PBS # 316, tetO): 8 µg/mL (≈ 18 µM)
MIC (S. agalactiae; Streptococcus agalactiae, S. agalactiae strain PBS # 897, tetM): 8 µg/mL (≈ 18 µM)
MIC50 (S. agalactiae; Streptococcus agalactiae, S. agalactiae (31 isolates), read-out: MIC50): 8 µg/mL (≈ 18 µM)
MIC90 (S. agalactiae; Streptococcus agalactiae, S. agalactiae (31 isolates), read-out: MIC90): 16 µg/mL (≈ 36 µM)
MIC Range (S. haemolyticus): 0.06 to 16 µg/mL
MIC50 (S. haemolyticus; Staphylococcus haemolyticus, read-out: MIC50): 0.5 µg/mL (≈ 1.13 µM)
MIC90 (S. haemolyticus; Staphylococcus haemolyticus, read-out: MIC90): 16 µg/mL (≈ 36 µM)
MIC Range [8]: 0.06 to 16 µg/mL
MIC50 ([8]; read-out: MIC50): 0.12 µg/mL (≈ 0.27 µM)
MIC90 ([8]; read-out: MIC90): 8 µg/mL (≈ 18 µM)
MIC Range (E. faecium; E. faecium [VRE] (30 isolates)): 0.06 to 16 µg/mL
MIC Range (E. faecium; E. faecium [VSE] (32 isolates)): 0.06 to 32 µg/mL
MIC Range (E. faecium; E. faecium [tetR] (6 isolates)): 4 to 16 µg/mL
MIC (E. faecium; E. faecium strain PBS # 965, tetM): 4 µg/mL (≈ 9 µM)
MIC (E. faecium; E. faecium strain PBS # 1323, tetK): 4 µg/mL (≈ 9 µM)
MIC (E. faecium; E. faecium strain PBS # 1324, tetO): 4 µg/mL (≈ 9 µM)
MIC50 (E. faecium; E. faecium [VRE] (30 isolates)): 1 µg/mL (≈ 2.25 µM)
MIC90 (E. faecium; E. faecium [VRE] (30 isolates)): 8 µg/mL (≈ 18 µM)
MIC50 (E. faecium; E. faecium [VSE] (32 isolates)): 0.5 µg/mL (≈ 1.13 µM)
MIC90 (E. faecium; E. faecium [VSE] (32 isolates)): 16 µg/mL (≈ 36 µM)
MIC Range (E. coli): 0.5 to 4 µg/mL
MIC Range (K. pneumoniae; K. pneumoniae [tetS] (7 isolates)): 0.5 to 8 µg/mL
MIC50 (K. pneumoniae; [9]): 8 µg/mL (≈ 18 µM)
MIC90 (K. pneumoniae; [9]): > 32 µg/mL
MIC50 (P. mirabilis): > 32 µg/mL
MIC90 (P. mirabilis): > 32 µg/mL
MIC50 (P. aeruginosa): > 32 µg/mL
MIC90 (P. aeruginosa): > 32 µg/mL
